Laboratory results taken from patent publication US8207329B2, “Synthesis of chlorins and phorbines with enhanced red spectral features” (North Carolina State University, priority 2005, dated 2012).
Several values for one entry are separate records, joined by “and”; a condition that tells them apart may be missing. Equal entries are not always repeated. Where two headings read alike, the source gives them in different places.

Legend:
[1] = Fluorescence spectra and fluorescence quantum yields in toluene at room temperature; type: physicochemical
Protocol: Fluorescence Spectroscopy. The fluorescence spectra and fluorescence quantum yields reported herein were collected in toluene at room temperature. Measurements of fluorescence quantum yield (Φf) were carried out using chlorin Zn-11 (Φf=0.065) as a standard (Strachan, J.-P. et al., J. Org. Chem. 2000, 65, 3160-3172).

[2] = Absorption spectra obtained in toluene at room temperature; type: physicochemical
Source text: (§1) Absorption Spectra. The spectral properties of interest in the chlorins include the position of the long-wavelength Qy transition, the intensity of the Qy transition, and the fluorescence quantum yield of the chlorin. The intensity of the Qy transition can be assessed by the measured molar absorption coefficient; however, comparisons of such values are somewhat unreliable given the experimental variability encountered upon handling small quantities of materials. A better comparison is achieved by examination of the ratio of the intensities of the B and Qy bands for a given compound (B/Qy ratio), which is determined simply by absorption spectroscopy without requiring determination of the molar absorption coefficient. For a wide variety of applications, bathochromic and hyperchromic shifts of the Qy band are desired (i.e., shifted to longer wavelength and intensified), thereby affording strong absorption in the deep-red region.
General. ^1H NMR (400 MHz) and ^13C NMR (75 MHz) spectra were collected at room temperature in CDCl3. Absorption spectra were obtained in toluene at room temperature. Chlorins were analyzed by laser desorption mass spectrometry (LD-MS) in the absence of a matrix. Fast atom bombardment mass spectrometry (FAB-MS) data are reported for the molecule ion or protonated molecule ion. Melting points are uncorrected. All commercially available materials were used as received. All palladium-coupling reactions were carried out using standard Schlenk-line techniques.
as §1, with “B. Absorption” for “Absorption”, “Spectroscopy.” for “Spectra.”, “increased” for “intensified), thereby affording strong absorption”, “intensity).” for “the deep-red region.”
General. ^1H NMR (400 MHz) and ^13C NMR (75 MHz) spectra were collected at room temperature in CDCl3 unless noted otherwise. Absorption spectra were obtained in toluene at room temperature. Chlorins were analyzed by laser desorption mass spectrometry (LD-MS) in the absence of a matrix. Metalation of free base chlorins was monitored by fluorescence spectroscopy. Melting points are uncorrected. All commercially available materials were used as received.

[3] = comparison values, Strachan et al.; cited from earlier work
[4] = Table 1, in toluene at room temperature

Row | Compound | strong / dominant Qy(0,0) fluorescence band [1] | weak emission feature / broad weak band [1] | fluorescence quantum yield (Φf) ([1]; standard Zn-11 (Φf=0.065)) | B/Qy intensity ratio [2, 4] | Log ε (M^−1cm^−1) (Qy band) [2, 4] | λmax (nm), B [2, 4] [nm] | λmax (nm), Qy [2, 4] [nm] | fluorescence quantum yield (Φf) [3] | redshift of the Qy band ([2]; Example 1, versus benchmark chlorin lacking the 13-substituent (Zn-11 or 11), toluene) [nm] | Qy band ([2]; figure legends (FIG. 1, 2, 4, 5), toluene at room temperature, normalized at the B bands) [nm]
1 | CC(=O)c1cc2[nH]c1cc1nc(cc3ccc([nH]3)c(-c3ccc(C)cc3)c3nc(c2-c2c(C)cc(C)cc2C)C=C3)C(C)(C)C1 [compound 8, 13-Acetyl-17,18-dihydro-10-mesityl-18,18-dimethyl-5-p-tolylporphyrin] | approximately 668 nm | ~711 nm and ~744 nm | 0.23 | 2.3 | 4.67 | 422 | 661 |  |  | 
2 | Cc1ccc(-c2c3nc(c(-c4c(C)cc(C)cc4C)c4cc5c([nH]4)c(c4nc(cc6ccc2[nH]6)C(C)(C)C4)CC5=O)C=C3)cc1 [compound 10, 18,18-Dimethyl-10-mesityl-13^1-oxo-5-p-tolylphorbine] |  |  |  | 2.5 |  | 417 | 660 | 0.29 | 19 | 660
